The values that follow come from patent US10933061B2 (Shepherd Therapeutics, Inc., priority 2017, dated 2021).

“And” between values parts separate entries of the source, which are not always exact repeats. Identical values can stand only once. Like-named read-outs stand apart in the source and are kept apart here.

Test [1] deals with rare cancer tumor cell lines. In words: Cell viability, panel of rare cancer tumor cell lines. In kind it is cell-based.
Experimental: In all cases, including those described below, the viable cells were determined using the CellTiter Glo® kit and a dose response curve to calculate the IC50 was generated using the PRISM software.
The subject of test [2] is NCI-H295R adrenocortical carcinoma cells. Description: Chou-Talalay combination assay, Cell Titer Glo. It counts as cell-based. Conditions: combination with pyrvinium pamoate, 72 hour incubation. (In general: In ATP-based viability assays light output follows the ATP content of the culture.)
Experimental: (§1) Following a 72 hour incubation, cell viability was determined using Cell Titer Glo.
Test [3] concerns SW13 adrenocortical carcinoma cells. In words: Chou-Talalay combination assay, Cell Titer Glo. In kind it is cell-based. Particulars: 72 hour incubation.
Experimental: as §1
Test [4] deals with carcinoid tumor cell line STC-1. In words: Chou-Talalay combination assay, Cell Titer Glo. In kind it is cell-based. Conditions: combination with pyrvinium pamoate, 72 hour incubation.
Experimental: as §1
Test [5] concerns CCC-5 cholangiocarcinoma cells. Description: Chou-Talalay combination assay, Cell Titer Glo. Particulars: 72 hour incubation; for CI range: combination with pyrvinium pamoate. It counts as cell-based.
Experimental: as §1
Test [6] concerns TFK-1 cholangiocarcinoma cells. Description: Chou-Talalay combination assay, Cell Titer Glo. It counts as cell-based. Particulars: 72 hour incubation; for CI range: combination with pyrvinium pamoate.
Experimental: as §1
The subject of test [7] is UM-Chor1 chordoma cell line. In words: Chou-Talalay combination assay, Cell Titer Glo. It counts as cell-based. Conditions: combination with pyrvinium pamoate, 72 hour incubation.
Experimental: as §1
Test [8] relates to TC-32 Ewing's sarcoma cells. In words: Chou-Talalay combination assay, Cell Titer Glo. It counts as cell-based. Particulars: combination with pyrvinium pamoate, 72 hour incubation.
Experimental: as §1
For test [9], the system named is TC-71 Ewing's sarcoma cells. Description: Chou-Talalay combination assay, Cell Titer Glo. Conditions: 72 hour incubation. It counts as cell-based.
Experimental: as §1
Test [10] has as its system Kato-III gastric carcinoma cells. In words: Chou-Talalay combination assay, Cell Titer Glo. In kind it is cell-based.
Experimental: as §1
Test [11] concerns SNU-16 gastric carcinoma cells. In words: Chou-Talalay combination assay, Cell Titer Glo. It counts as cell-based. Particulars: combination with pyrvinium pamoate, 72 hour incubation.
Experimental: as §1
The subject of test [12] is GIST-1 gastrointestinal stromal tumor cells. In words: Chou-Talalay combination assay, Cell Titer Glo. Particulars: combination with pyrvinium pamoate, 72 hour incubation. It counts as cell-based.
Experimental: as §1
In test [13] the test system is SK-UT-1 leiomyosarcoma cells. Description: Chou-Talalay combination assay, Cell Titer Glo. Particulars: combination with pyrvinium pamoate, 72 hour incubation. In kind it is cell-based.
Experimental: as §1
The subject of test [14] is SK-UT-1B leiomyosarcoma cells. In words: Chou-Talalay combination assay, Cell Titer Glo. In kind it is cell-based. Particulars: combination with pyrvinium pamoate, 72 hour incubation.
Experimental: as §1
The next test deals with LO-68 mesothelioma cells. Description: Chou-Talalay combination assay, Cell Titer Glo. In kind it is cell-based. Particulars: combination with pyrvinium pamoate, 72 hour incubation.
For the next test, the system named is JU-77 mesothelioma cells. Description: Chou-Talalay combination assay, Cell Titer Glo. It counts as cell-based. Particulars: combination with pyrvinium pamoate, 72 hour incubation.
Test [15] deals with SK-N-AS neuroblastoma cells. In words: Chou-Talalay combination assay, Cell Titer Glo. In kind it is cell-based. Particulars: SK-N-AS; combination with pyrvinium pamoate; 72 hour incubation.
Experimental: as §1
Test [16] relates to CHP-212 neuroblastoma cells. Description: Chou-Talalay combination assay, Cell Titer Glo. In kind it is cell-based. Conditions: 72 hour incubation; for CI range: combination with pyrvinium pamoate.
Experimental: as §1
The subject of test [17] is COV362 ovarian carcinoma cells. Description: Chou-Talalay combination assay, Cell Titer Glo. It counts as cell-based. Particulars: combination with pyrvinium pamoate, 72 hour incubation.
Experimental: as §1
Test [18] relates to TOV-112D ovarian carcinoma cells. In words: Chou-Talalay combination assay, Cell Titer Glo. It counts as cell-based. Particulars: 72 hour incubation.
Experimental: as §1
The subject of test [19] is SKOV-3 ovarian carcinoma cells. In words: Chou-Talalay combination assay, Cell Titer Glo. In kind it is cell-based. Conditions: combination with pyrvinium pamoate, 72 hour incubation.
Experimental: as §1
Test [20] has as its system Rh41 rhabdomyosarcoma cells. In words: Chou-Talalay combination assay, Cell Titer Glo. It counts as cell-based. Particulars: combination with pyrvinium pamoate, 72 hour incubation.
Experimental: as §1
For test [21], the system named is SK-LMS-1 leiomyosarcoma cells. In words: Chou-Talalay combination assay, Cell Titer Glo. In kind it is cell-based. Conditions: combination with pyrvinium pamoate, 72 hour incubation.
Experimental: as §1
The test system of test [22] is Hs766t pancreatic carcinoma cells. Description: Chou-Talalay combination assay, Cell Titer Glo. In kind it is cell-based. Conditions: 72 hour incubation; for CI range: combination with pyrvinium pamoate.
Experimental: as §1
Test [23] relates to Rh30 rhabdomyosarcoma cells. Description: Chou-Talalay combination assay, Cell Titer Glo. In kind it is cell-based. Conditions: combination with pyrvinium pamoate, 72 hour incubation.
Experimental: as §1
Test [24] relates to PC12 pheochromocytoma/paraganglioma cells. Particulars: combination with pyrvinium pamoate, 72 hour incubation.
Experimental: as §1
For test [25], the system named is BxPC-3 pancreatic carcinoma cells. Description: Chou-Talalay combination assay, Cell Titer Glo. Conditions: combination with pyrvinium pamoate, 72 hour incubation.
Experimental: as §1
The test system of test [26] is HepG2 hepatocellular carcinoma cells. In words: Chou-Talalay combination assay, Cell Titer Glo. Conditions: combination with pyrvinium pamoate, 72 hour incubation.
Experimental: as §1
In test [27] the test system is HepG2-C3A hepatocellular carcinoma cells. In words: Chou-Talalay combination assay, Cell Titer Glo. Conditions: combination with pyrvinium pamoate, 72 hour incubation.
Experimental: as §1
The subject of test [28] is HCT116 colorectal carcinoma cells. Description: Chou-Talalay combination assay, Cell Titer Glo. In kind it is cell-based. Conditions: combination with pyrvinium pamoate, 72 hour incubation.
Experimental: as §1
Test [29] has as its system Flo-1 esophageal carcinoma cells. In words: Chou-Talalay combination assay, Cell Titer Glo. Conditions: combination with pyrvinium pamoate, 72 hour incubation. It counts as cell-based.
Experimental: as §1
For test [30], the system named is OE-33 esophageal carcinoma cells. Description: Chou-Talalay combination assay, Cell Titer Glo. It counts as cell-based. Particulars: combination with pyrvinium pamoate, 72 hour incubation.
Experimental: as §1
Test [31] deals with IMR-32 neuroblastoma cells. Description: Chou-Talalay combination assay, Cell Titer Glo. In kind it is cell-based. Conditions: combination with pyrvinium pamoate, 72 hour incubation.
Experimental: as §1
Test [32] deals with DMS-114 small cell lung carcinoma cells. In words: Chou-Talalay combination assay, Cell Titer Glo. It counts as cell-based. Particulars: combination with pyrvinium pamoate, 72 hour incubation.
Experimental: as §1
The test system of test [33] is SW-1271 small cell lung carcinoma cells. In words: Chou-Talalay combination assay, Cell Titer Glo. It counts as cell-based. Particulars: combination with pyrvinium pamoate, 72 hour incubation.
Experimental: as §1
Setting [34] is: combination with pyrvinium pamoate.

Experimental for JU-77 mesothelioma cells: as §1
Experimental for LO-68 mesothelioma cells: as §1

Regarding `Cc1cc(/C=C/c2ccc3cc(N(C)C)ccc3[n+]2C)c(C)n1-c1ccccc1` [pyrvinium pamoate, 3-carboxy-1-[(3-carboxy-2-oxidonaphthalen-1-yl)methyl]naphthalen-2-olate;2-[(E)-2-(2,5-dimethyl-1-phenylpyrrol-3-yl)ethenyl]-N,N,1-trimethylquinolin-1-ium-6-amine], in test [1] (FIG. 14), the “growth of multiple rare cancer cell lines” value is “inhibits growth”. Further, the IC50 in test [1] (several rare cancer tumor cell lines, 72 hours, read-out: IC50s ranging) lay within 2 to 1000 nM.

As for `COc1cccc2c1C(=O)c1c(O)c3c(c(O)c1C2=O)C[C@@](O)(C(=O)CO)C[C@@H]3O[C@H]1C[C@H](N)[C@H](O)[C@H](C)O1` [Doxorubicin], the CI range is 0.185-0.872 in [2]; 0.807-0.890 in test [4]; 0.341-0.805 in test [5]; 0.423-0.875 in [7]; 0.424-0.872 in [8]; “Yes- (0.021-0.584)” in test [10] (Kato-III, combination with pyrvinium pamoate, 72 hour incubation). For the same compound, the CI range in test [11] was 0.614-0.878; in [12] it was 0.169-0.883; in test [13], “(0.556-0.858)”; in test [14], 0.352-0.739; in the test with LO-68 mesothelioma cells, 0.008-0.642; with JU-77 mesothelioma cells, 0.444-0.889. Further, the CI range entry in [15] is “Yes- (0.082-0.879)”; in [16], 0.696-0.812; in test [17] it was 0.021-0.895; in test [19], “(0.017-0.870)”; in [20] it was 0.145-0.834. Also, the “Synergy with pyrvinium pamoate” value in test [3], in [6], in [9] and in [18] was “No” in each case.

In the case of `CC[C@]1(O)C[C@H]2CN(CCc3c([nH]c4ccccc34)[C@@](C(=O)OC)(c3cc4c(cc3OC)N(C=O)[C@H]3[C@@](O)(C(=O)OC)[C@H](OC(C)=O)[C@]5(CC)C=CCN6CC[C@]43[C@@H]65)C2)C1` [Vincristine], the CI range in test [2] is listed as 0.752-0.827; in [3] (setting [34]) it was 0.499-0.875; in test [4] it was 0.036-0.854; in [6], 0.453-0.827; in test [7], 0.249-0.560; in [8], 0.659-0.869. Further, the CI range in [9] (setting [34]) was 0.251-0.898; in test [12], 0.231-0.756 and 0.150-0.772; in [21], 0.163-0.831; in test [17], 0.432-0.825; in test [18] (setting [34]) it was 0.477-0.858; in [23] it was 0.477-0.883. Also, the CI range in [20] was 0.284-0.876; in test [24] it was 0.614-0.841; in [25], 0.347-0.869. Also, the “Synergy with pyrvinium pamoate” value in test [5], in test [16] and in test [22] was “No” throughout.

On to `CN(C)/N=N/c1[nH]cnc1C(N)=O` [Dacarbazine], for which, in test [24], the CI range is 0.550-0.818.

For the compound `Nc1ccn([C@@H]2O[C@H](CO)[C@@H](O)C2(F)F)c(=O)n1` [Gemcitabine], the CI range in test [5] was 0.008-0.729; in [6], 0.290-0.851; in [21] it was 0.311-0.774; in test [13], “(0.118-0.888)”; in [14], 0.516-0.687; in the test on LO-68 mesothelioma cells, 0.047-0.871. Also, the CI range in the test on JU-77 mesothelioma cells is reported as 0.404-0.725; in test [22], 0.378-0.822; in [26], 0.613-0.899; in test [27], 0.201-0.566; in test [25], 0.417-0.851.

Regarding `O=C1[O][Pt]2([NH][C@@H]3CCCC[C@H]3[NH]2)[O]C1=O` [Oxaliplatin], the CI range in [28] was 0.375-0.889; in test [29], 0.558-0.871; in test [30], 0.447-0.703; in test [10], “Yes- (0.384-0.781)”; in test [11] it was 0.083-0.831 and 0.089-0.851; in test [22], 0.340-0.884. The results for the CI range in test [26], in test [27] and in test [25] were 0.354-0.865, 0.307-0.870 and 0.254-0.802, respectively.

`CCN1CCN(Cc2ccc(Nc3ncc(F)c(-c4cc(F)c5nc(C)n(C(C)C)c5c4)n3)nc2)CC1` [Abemaciclib]: the CI range in test [5] is recorded as 0.628-0.841; in test [6] it was 0.522-0.884; in [12], 0.249-0.699; in [21], 0.350-0.808; in [16] it was 0.076-0.772; in test [31], “(0.485-0.860)”. The CI range in test [17] was 0.144-0.714; in test [22] it was 0.587-0.863 and 0.304-0.879; in [23], 0.148-0.886; in test [32], 0.327-0.876; in test [33] it was 0.183-0.889; in test [25], 0.417-0.895.
